For the assay, the system named is Platelet. Nature of the assay: Inhibition of arachidonic acid-induced platelet aggregation in rabbit […] by turbidimetric method. In kind it is functional, cell-based. As to conditions: Oryctolagus cuniculus.
For `COc1c2c(c(-c3ccc4c(c3)OCO4)c3cc4c(cc13)OCO4)C(=O)OC2` [TAIWANIN E METHYL ETHER], the IC50 was 1.7 µM.
The same measure for `COc1ccc2c(c1)c(CC(=O)O)c(C)n2C(=O)c1ccc(Cl)cc1` [INDOMETHACIN]: 0.21 µM; for `O=C1OCc2c1c(-c1ccc3c(c1)OCO3)c1cc3c(cc1c2O)OCO3` [TAIWANIN E]: 8 µM; for `COc1ccc(-c2c3c(c(OC)c4cc5c(cc24)OCO5)COC3=O)cc1OC` [CHINENSINAPHTHOL METHYL ETHER]: 18.8 µM.
The same measure for `COc1c2c(c(-c3ccc4c(c3)OCO4)c3cc4c(cc13)OCO4)COC2=O` [NEOJUSTICIN A]: 1.1 µM.
To `COc1cc2c(O)c3c(c(-c4ccc5c(c4)OCO5)c2cc1OC)C(=O)OC3` [DIPHYLLIN] belongs more than 100 µM.
Turning to `COc1cc2c(OC)c3c(c(-c4ccc5c(c4)OCO5)c2cc1OC)COC3=O` [NEOJUSTICIN B], the IC50 stood at 50.8 µM.
The same measure for `CC(=O)Oc1ccccc1C(=O)O` [ASPIRIN]: 20.3 µM; for `COc1cc2c(OC)c3c(c(-c4ccc5c(c4)OCO5)c2cc1OC)C(=O)OC3` [JUSTICIDIN A]: 31.7 µM.

Broadly, the IC50 is the midpoint of a concentration-inhibition curve. Read a high IC50 as a need for much substance.

Source of the values: ChEMBL document CHEMBL1158294, “Antiplatelet arylnaphthalide lignans from Justicia procumbens” (J Nat Prod, 1996).
